Measured values reported in patent US11365194B2, “Analgesic drug using PAC1 receptor antagonistic drug” (KAGOSHIMA UNIVERSITY, priority 2017, dated 2022).

Tests used:
[1] = system: mechanical allodynia induced by spinal nerve injury; assay: Spinal nerve ligation (SNL) model, repeated intraperitoneal administration, mechanical allodynia; type: in vivo, mouse
Description: (§1) Male ddY mice (6 to 12 weeks old) were used, and the threshold to a mechanical stimulus was evaluated by the vonFrey test. Specifically, the 50% withdrawal reflex threshold (Threshold) was calculated in accordance with the method of Chaplan et al. (Chaplan et al., J. Neurosci. Meth. 53, 55-63, 1994). Each compound was dissolved in 99.7% DMSO, and then the resulting solution was diluted with an artificial cerebrospinal fluid for preparation (final concentration of DMSO was 0.2%).
Spinal nerve ligation (SNL) models in which the fourth lumbar cord spinal nerves of male ddY (6 to 12 weeks old) were ligated with silk thread were used. A solvent (VEH: 10% DMSO-containing saline). PA-8, the compound 2j or the compound 20 was intraperitoneally administered (30 mg/kg) 5 to 10 minutes before the ligation, and once a day for 7 days thereafter. The method of causing a mechanical stimulus is the same as that of Example 5, and data from the first day after the ligation (D1) are data 1 hour after the administration of VEH or the drugs.

[2] = system: mechanical allodynia induced by PACAP intrathecal administration; assay: Mechanical allodynia induced by PACAP intrathecal administration (von Frey test); type: in vivo, mouse; conditions: 10 or 100 pmol, simultaneous i.t.; FIGS. 5A and B
Description: When single i.t. administration of PACAP (100 pmol/5 L) to mouse was performed, mechanical stimulus sensitive phenomenon (mechanical allodynia) occurred over a long period of time (for at least three months after the administration) (Non Patent Literature 1). […] The mechanical sensitive phenomenon induced by PACAP was not suppressed in an example in which a solvent (VEH: 0.2% DMSO-containing artificial cerebrospinal fluid) was used instead of the compounds.
as §1

[3] = system: cold allodynia induced by oxaliplatin; assay: Cold allodynia induced by oxaliplatin, drug on fourth day after oxaliplatin (acetone test); type: in vivo, mouse; conditions: 10 mg/kg, single oral administration, fourth day after oxaliplatin
Description: Oxaliplatin was dissolved in 5% glucose-containing saline and intraperitoneally administered at a dose of 2 mg/kg. A drug was administered on the fourth day after oxaliplatin administration. Male ddY mice (6 to 12 weeks old) were used. The axis of ordinates is the duration of the behavior of licking and paw waving after the application of an acetone drop (10 L) to the footpad of a hind paw.

[4] = system: pain-like behavior induced by formalin; assay: Pain-like behavior induced by formalin; type: in vivo, mouse; conditions: 0.1 to 10 nmol i.t.
Description: The first phase is direct action of formalin on sensory nerves (to around 10 minutes after formalin administration). In the second phase (from around 10 minutes to 60 minutes after formalin administration), hypersensitization formed in spinal dorsal horn cells during the first phase (a type of plastic phenomenon in the nervous system also called central sensitization) is a main cause, and inflammatory reaction at the site of formalin administration contributes importantly.

PAC1 receptor = molecular target: T1, PAC1 receptor (Homo sapiens, UniProt P41586); conditions: Non Patent Literature 3; cited from earlier work
T1 sequence (P41586 21-468): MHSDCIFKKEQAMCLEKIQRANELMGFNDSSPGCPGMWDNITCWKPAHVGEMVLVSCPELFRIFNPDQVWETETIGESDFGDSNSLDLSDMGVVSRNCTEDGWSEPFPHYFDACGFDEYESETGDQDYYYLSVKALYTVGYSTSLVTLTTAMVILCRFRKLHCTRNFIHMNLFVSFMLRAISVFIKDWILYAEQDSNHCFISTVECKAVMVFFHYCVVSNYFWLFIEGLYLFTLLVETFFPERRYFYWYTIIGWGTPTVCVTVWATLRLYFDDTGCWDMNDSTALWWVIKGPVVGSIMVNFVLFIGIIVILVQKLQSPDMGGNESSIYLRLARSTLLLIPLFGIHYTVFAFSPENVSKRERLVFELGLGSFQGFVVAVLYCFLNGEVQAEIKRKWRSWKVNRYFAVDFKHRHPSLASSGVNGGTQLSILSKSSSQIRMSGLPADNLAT

C=CCOc1ccc(C2CC(=O)Nc3nc(N)[nH]c(=O)c32)cc1OC (stereo not shown) [PA-8, reference compound]
suppression of the onset of mechanical allodynia ([1]; 30 mg/kg i.p. before ligation and once a day for 7 days): suppressed the onset of mechanical allodynia significantly
mechanical threshold after discontinuation of administration ([1]; 30 mg/kg i.p., discontinued on the seventh day, versus VEH group): maintained the mechanical threshold highly significantly for at least 7 days thereafter
suppression of long-term mechanical allodynia induced by PACAP [2]: strongly suppressed
suppression of cold allodynia by oxaliplatin [3]: suppressed cold allodynia by oxaliplatin significantly over 4 to 5 hours
effect on first phase reaction [4]: did not affect the first phase reaction
effect on second phase reaction [4]: suppressed the second phase reaction significantly depending on the concentration
PAC1 receptor antagonistic action (PAC1 receptor): have PAC1 receptor antagonistic action
